PubChem BioAssay (NCI)
Several values for one entry are separate records, joined by “and”; a condition that tells them apart may be missing. Equal values may be shown once.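 Each compound was tested at five concentrations against cells in 96-well plates for 48 hours. At the GI50, growth is halved. TGI denotes the concentration required for complete inhibition of growth.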

Legend:
Experiment in all cases: DTP human tumour cell line panel, 48 h
IGROV1 ovarian = system: IGROV1 ovarian
MALME-3M melanoma = system: MALME-3M melanoma
SK-MEL-5 melanoma = system: SK-MEL-5 melanoma
SNB-75 CNS = system: SNB-75 CNS
OVCAR-5 ovarian = system: OVCAR-5 ovarian
NCI-H23 lung = system: NCI-H23 lung
UACC-62 melanoma = system: UACC-62 melanoma
HT29 colon = system: HT29 colon
UO-31 renal = system: UO-31 renal
SR leukemia = system: SR leukemia

Structure (SMILES) | GI50 (IGROV1 ovarian) | TGI (IGROV1 ovarian) | GI50 (MALME-3M melanoma) | TGI (MALME-3M melanoma) | GI50 (SK-MEL-5 melanoma) | TGI (SK-MEL-5 melanoma) | GI50 (SNB-75 CNS) | TGI (SNB-75 CNS) | GI50 (OVCAR-5 ovarian) | TGI (OVCAR-5 ovarian) | GI50 (NCI-H23 lung) | TGI (NCI-H23 lung) | GI50 (UACC-62 melanoma) | TGI (UACC-62 melanoma) | GI50 (HT29 colon) | TGI (HT29 colon) | GI50 (UO-31 renal) | TGI (UO-31 renal) | GI50 (SR leukemia) | TGI (SR leukemia)
CN1C(=O)N(C)C2C1NN=c1s/c(=C\c3ccc(C(F)(F)F)cc3)c(=O)n12 (stereo not drawn) | 2.65 µM | > 100 µM | 8.33 µM | > 100 µM | 0.594 µM | 13.9 µM | 2.11 µM | 18.1 µM | 3.2 µM | > 100 µM | 2.49 µM | > 100 µM | 0.662 µM | > 100 µM | 0.44 µM | > 100 µM | 2.21 µM | > 100 µM | 0.329 µM | > 100 µM
O=C(O)CN1CCN(CC(=O)O)CC(=O)[O][Hg][O]C(=O)C1 | 7.29 µM | 28.4 µM | 16.6 µM | 33 µM | 20.5 µM | > 57 µM | 23.6 µM | 66.5 µM | 18.7 µM | 38.5 µM | 21.2 µM | 47.2 µM | 18.3 µM | 32.4 µM | 16 µM | 34.1 µM | 17.5 µM | 31.4 µM | 14.8 µM | 38.6 µM
CC(=O)Nc1ccc(SC#N)c2c(NC(C)=O)cccc12 |  | > 100 µM |  | > 100 µM |  | > 100 µM |  | > 100 µM |  | > 100 µM |  | > 100 µM |  | > 100 µM |  | > 100 µM |  | > 100 µM |  | > 100 µM
OCc1ccc(N2CCCC2c2ccccc2)cc1Cl (stereo not drawn) | 0.187 µM | 0.813 µM | 9.73 µM | 28.2 µM | 3.33 µM | 9.36 µM | 3.28 µM | 29 µM | 0.351 µM | 1.52 µM | 5.51 µM | 30 µM | 0.665 µM | 4.01 µM | 3.37 µM | 14.3 µM | 9.28 µM | 27.4 µM | 3.13 µM | 17.2 µM
COc1cc2c(cc1C1COc3cc4occc4cc3C1=O)OCO2 (stereo not drawn) |  | > 100 µM |  | > 100 µM |  | > 100 µM |  | > 100 µM |  | > 100 µM |  | > 100 µM |  | > 100 µM |  | > 100 µM |  | > 100 µM |  | > 100 µM
Cc1ccc2c(C3Cc4ccccc4N3C(=O)/C=C\C(=O)O)c(C)[nH]c2c1 (stereo not drawn) |  | > 100 µM |  | > 100 µM |  | > 100 µM |  | > 100 µM |  | > 100 µM |  | > 100 µM |  | 97.6 µM |  | > 100 µM |  | > 100 µM |  | 72.9 µM
C=CC(=O)Nc1cccc(Oc2nc(Nc3ccc(N4CCN(C)CC4)cc3)nc3ccsc23)c1 | 1.42 µM and 1.75 µM | 3.05 µM and 4.58 µM | 1.63 µM and 1.83 µM | 3.14 µM and 3.66 µM | 1.64 µM and 1.75 µM | 3.05 µM and 3.16 µM | 1.54 µM and 2.1 µM | > 10 µM and 10.5 µM | 3.61 µM and 8.09 µM | > 10 µM and 25.2 µM | 4.27 µM and 9.48 µM | > 10 µM and 36.4 µM | 1.59 µM and 1.74 µM | 3.17 µM and 3.67 µM | 1.91 µM and 2.72 µM | 4.05 µM and 5.81 µM | 0.962 µM and 1.11 µM | 3.69 µM and 3.38 µM | 2.23 µM | 5.73 µM
NC(=O)c1csc(C2OC(CO)C(O)C2O)n1 (stereo not drawn) | > 72.8 µM | 5650 µM |  | > 7980 µM | > 31.6 µM | > 31.6 µM and 8280 µM | 26.5 µM and 40.8 µM | 7140 µM |  | > 9720 µM | 52.3 µM | 5250 µM | > 79.7 µM | 4960 µM | 45.9 µM | > 10000 µM | 44.6 µM | 1740 µM | 103 µM | > 6090 µM
O=S(=O)(c1ccc(Cl)cc1)C(Cl)(Cl)Cl | 3.08 µM | 23.5 µM | 0.244 µM | 3.89 µM | 3.02 µM | 12.1 µM | 2.34 µM | 20.3 µM | 12.7 µM | 69.6 µM | 2.69 µM | 17.7 µM | 4.75 µM | 25 µM | 2.85 µM | 22.5 µM | 0.298 µM | 11.5 µM | 0.486 µM | 39.7 µM
C[C@@H]1CN(Cc2ccc(F)cc2)[C@@H](C)CN1C(=O)c1cc2c(C(=O)C(=O)N(C)C)cn(C)c2cc1Cl | 19.5 µM | 49.7 µM | 17.2 µM | 37.7 µM | 13.1 µM | 26 µM | 8.35 µM | 27.9 µM | 21.8 µM | 60.4 µM | 19.6 µM | 57.2 µM | 5.86 µM | 23.9 µM | 14 µM | 36.3 µM | 15.3 µM | > 81.9 µM | 13.4 µM | 39.2 µM
N#Cc1c(N2CCOCC2)nc(=S)[nH]c1-c1ccco1 | 1.86 µM | 13 µM | 2.18 µM | 8.18 µM | 5.06 µM | > 100 µM | 2.15 µM | 55.6 µM | 4.18 µM | 88.3 µM | 12.1 µM | > 100 µM | 2.91 µM | 32.7 µM | 9.56 µM | > 100 µM | 2.67 µM | 72.3 µM | 2.8 µM | 51.7 µM
CC1=C2[C@@H](CC1)[C@]1(C)O[C@@](c3ccccc3)(C[C@H]1OC(=O)CO)[C@H]2OC(=O)/C=C/c1ccccc1 | 24.3 µM | 62.4 µM | 20.1 µM | 42.8 µM | 15.3 µM | 29.7 µM | 14.2 µM | 53.6 µM | 20.2 µM | 47.4 µM | 17.1 µM | 44.9 µM | 15.3 µM | 36 µM | 15.1 µM | 34.1 µM | 0.618 µM | 27.6 µM | 12 µM | 44.8 µM
COc1cc2c(c(OC)c1OC)-c1ccc(SC)c(=O)cc1C(NC(=O)c1ccccc1)CC2 (stereo not drawn) |  | 49.6 µM |  | 32.7 µM |  | < 0.01 µM |  | 4.01 µM |  | 58.7 µM |  | 0.903 µM |  | 36.7 µM |  | 1.12 µM |  | > 68.1 µM |  | 27 µM
c1cnn2ncc(-c3ccnc(NCCCN4CCOCC4)n3)c2c1 | 7.51 µM | > 25 µM | 7.63 µM | 24.5 µM | 3.63 µM | 9.7 µM | 5.52 µM | 12.7 µM | 7.28 µM | 24.9 µM | 7.87 µM | > 25 µM | 5.86 µM | 18.4 µM | 7.43 µM | > 25 µM | 5.23 µM | 21 µM | 5.21 µM | > 21.3 µM
